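How tested: cells in 96-well plates exposed to compound for 48 hours at five concentrations. TGI: total growth inhibition.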
Tests used:
Assay in all cases: NCI tumour cell line growth inhibition, 48 h
BT-549 breast = test system: BT-549 breast
CAKI-1 renal = test system: CAKI-1 renal
EKVX NSCLC = test system: EKVX NSCLC
MDA-N = test system: MDA-N
NCI-H460 lung = test system: NCI-H460 lung
OVCAR-8 ovarian = test system: OVCAR-8 ovarian
RPMI-8226 leukemia = test system: RPMI-8226 leukemia
SF-268 CNS = test system: SF-268 CNS
SK-MEL-2 melanoma = test system: SK-MEL-2 melanoma
SNB-75 CNS = test system: SNB-75 CNS

Row | SMILES | TGI (BT-549 breast) [µM] | TGI (CAKI-1 renal) [µM] | TGI (EKVX NSCLC) [µM] | TGI (MDA-N) [µM] | TGI (NCI-H460 lung) [µM] | TGI (OVCAR-8 ovarian) [µM] | TGI (RPMI-8226 leukemia) [µM] | TGI (SF-268 CNS) [µM] | TGI (SK-MEL-2 melanoma) [µM] | TGI (SNB-75 CNS) [µM]
1 | O=C1C(Cl)=C(N(C(=O)c2ccccc2)C(=O)c2ccccc2)C(=O)c2ccccc21 | 21.7 | 23.3 | > 100 | 25.8 | 28.5 | > 100 | 8.87 | 21.7 | 43.9 | 24
2 | Nc1ncn2c(n1)nc1ccccc12 | > 100 | > 100 | > 100 | > 100 | > 100 | > 100 | > 100 | > 100 | > 100 | 78.9
3 | O=C(N=c1ccc2nc(=O)[nH]n(O)c-2c1)C(F)(F)F | > 100 | > 100 | > 100 | > 100 | > 100 | > 100 | > 100 | > 100 | > 100 | > 100
4 | CC(C)(C)c1cc(OCc2nn3c(Cc4ccccc4)nnc3s2)c(Cl)cc1OCc1nn2c(Cc3ccccc3)nnc2s1 | > 100 | > 100 | > 100 | > 100 | > 100 | > 100 | > 100 | > 100 | > 100 | > 100
5 | C=CCN(CCNS(=O)(=O)c1ccc(C)cc1)S(=O)(=O)c1ccc(C)cc1 | 61 | > 100 | 96.9 | > 100 | > 71.7 | > 100 | 73.5 | > 100 | 94.3 | > 100
6 | COc1cc2c3c(n(C)c(=O)c2cc1OC)-c1cc2c(cc1/C3=C\CCCI)OCO2 | > 100 | > 100 | > 100 | > 100 | > 100 | > 100 | > 74.6 | > 100 | > 100 | > 52
7 | Cc1cc(S(=O)(=O)Nc2nnc3cnc4ccccc4n23)c(S)cc1Cl | > 100 | > 100 | > 100 | > 100 | > 100 | > 100 | > 100 | > 100 | > 100 | > 100
8 | Cc1cc(=O)n2nc(CCl)sc2n1 | 17.5 | 23.1 | 36 | 27.7 | 29.5 | 35.5 | 50.6 | 39.5 | 28.7 | 28.6
9 | Clc1cccc(NN=Nc2ccc(-c3nc4ccccc4s3)cc2)c1 | > 100 | > 100 | > 100 | 80.1 | > 100 | 45.9 | > 100 | – | 48.1 | 66.1
10 | CCOC(=O)C(NC(=O)c1ccccc1)(N1CCN(c2cc3c(cc2F)c(=O)c(C(=O)O)cn3CC)CC1)C(F)(F)F (stereo not given) | > 100 | 48.4 | 49 | > 100 | > 100 | 47.3 | 69 | > 100 | > 100 | 90
11 | Cc1sc2c(c1C)/C(=N\O)c1cccn1-2 | > 100 | > 100 | > 100 | > 100 | > 100 | > 100 | > 100 | > 100 | > 100 | 41.1
12 | C=C(C)COC1CCCCO1 (stereo not given) | > 100 | > 100 | > 100 | > 100 | > 100 | > 100 | > 100 | > 100 | > 100 | > 100
13 | CCCCCCCCCCCCCCC(O)C[N+](C)(CCO)CCO (stereo not given) | 10.8 | 9.59 | 42.6 | 22.8 | 6.56 | 18.8 | 5.52 | 5.16 | 27.5 | 2.85
14 | O=c1[nH]cc(Cl)c(=O)[nH]1 | > 100 | > 100 | > 100 | > 100 | > 100 | > 100 | > 100 | > 100 | > 100 | > 100
15 | CC(=O)Oc1c(N2CCCCC2)c(C(=O)c2ccccc2)c(O)c2ccn(N(C)C)c12 | 42.7 | 33.8 | 31.2 | 35.3 | 51.2 | 58.1 | 44.8 | 57.5 | 54.6 | 32.5
16 | O=c1oc2ccccc2cc1-c1cn2c(n1)sc1ccccc12 | > 100 | > 100 | 34.3 | > 100 | > 100 | > 100 | > 100 | > 100 | > 100 | > 100

Row | SMILES | TGI (BT-549 breast) [µM] | TGI (CAKI-1 renal) [µM] | TGI (EKVX NSCLC) [µM] | TGI (MDA-N) [µM] | TGI (NCI-H460 lung) [µM] | TGI (OVCAR-8 ovarian) [µM] | TGI (RPMI-8226 leukemia) [µM] | TGI (SF-268 CNS) [µM] | TGI (SK-MEL-2 melanoma) [µM] | TGI (SNB-75 CNS) [µM]
17 | Cn1c(CO)ccc1-c1ccc(-c2ccc[se]2)[se]1 | > 81.4 | – | > 100 | > 61.5 | > 100 | > 100 | > 71.6 | > 100 | > 100 | 37.2
18 | C=C1CC(Cn2ccc(=O)[nH]c2=O)(c2ccc(Cl)cc2)OC1=O (stereo not given) | 18 | 6.77 | 35 | 17.1 | 26.1 | 24.5 | 3.94 | 43.5 | 22.5 | 30.9
19 | Nc1[nH]nc2nc3ccccc3nc12 | > 100 | > 100 | > 100 | > 100 | > 100 | > 100 | > 100 | > 100 | > 100 | > 100
20 | O=C(/C=C/c1cccc(Oc2ccccc2)c1)NCc1ccc(C(=O)NCCc2ccccc2)cc1 | > 100 | > 100 | > 100 | > 100 | > 100 | > 100 | > 100 | > 100 | > 100 | 92.6
21 | OCCN(/N=C\c1ccc2ccccc2c1)C1=NCCN1 | > 100 | – | > 100 | 32.4 | > 100 | > 100 | 60.8 | > 100 | 42.6 | > 100
22 | Cc1oc2c(c1C)S(=O)(=O)C(C#N)=C(N(C)C)N2 | > 100 | > 100 | > 100 | > 100 | > 100 | > 100 | > 100 | > 100 | > 100 | > 100
23 | Cc1csc2c1-n1cccc1C2=O | > 100 | > 100 | > 100 | > 100 | > 100 | > 100 | > 100 | > 100 | > 100 | > 100
24 | Cn1ncc2c(Cl)ncnc21 | > 100 | > 100 | > 100 | > 100 | > 100 | > 100 | > 100 | > 100 | > 100 | > 100
25 | COc1cc2c(c(O)c1OC)CC1CCC(=O)N1C2c1cccc2ccccc12 (stereo not given) | 41.6 | 47.1 | 54.5 | 31.7 | 61.1 | > 100 | > 100 | 78.7 | 34.9 | > 100
26 | O=C(/C=C(\S/C=C(/c1ccccc1)N1CCn2c(C(=O)c3ccccc3)c(C(=O)c3ccccc3)c(C(=O)c3ccccc3)c21)C(=O)c1ccccc1)c1ccccc1 | > 10 | > 10 | > 10 | > 10 | > 10 | > 10 | > 10 | > 10 | > 10 | > 10
27 | CCCCCCCCCCCC[C@@H](O)[C@H]1CCC([C@H](O)CCCCC(=O)CCCCCCCC2=C[C@H](C)OC2=O)O1 (stereo not given in full) | > 50 | > 50 | > 50 | > 50 | > 50 | > 50 | > 50 | > 50 | > 50 | > 50
28 | CN(C)c1ccc(/C=C(\NC(=O)c2ccccc2)C2=NC(CCC(=O)O)C(=O)O2)cc1 (stereo not given) | > 50 | > 50 | > 50 | > 50 | > 50 | > 50 | > 50 | > 50 | > 50 | > 50
29 | NNC(=S)NCCNC(=S)NN | > 100 | > 100 | > 100 | > 100 | > 100 | – | > 100 | > 100 | > 100 | > 100
30 | CC(C)(C)OC(=O)CN1CCNCCN(CC(=O)OC(C)(C)C)CCNCC1 | > 100 | > 100 | > 100 | > 100 | > 100 | > 100 | > 100 | – | > 100 | > 100
31 | NCC(O)CNC(=O)c1ccc(-c2ccc(-c3ccc(C(=O)NCC(O)CN)cc3)o2)cc1 (stereo not given) | 88.5 | > 100 | 70.3 | > 100 | > 100 | > 100 | > 100 | 69.3 | > 100 | 49.5
32 | Cc1ccc(C(=O)Nc2ccc(CP(=O)(O)O)cc2CP(=O)(O)O)cc1NC(=O)Nc1cc(C(=O)Nc2ccc(CP(=O)(O)O)cc2CP(=O)(O)O)ccc1C | > 100 | > 100 | > 100 | > 100 | > 100 | > 100 | > 100 | > 100 | > 100 | > 100

Reference: PubChem BioAssay (NCI)
